Experimental data published in ChEMBL document CHEMBL5329207, “Design, synthesis, and biological evaluation of diaminopyrimidine derivatives as novel focal adhesion kinase inhibitors” (RSC Med Chem, 2023).

What was measured:
MDA-MB-231 = assay: cells; details: Homo sapiens, MDA-MB-231, 72 h
Description: Antiproliferative activity against human MDA-MB-231 cells assessed as inhibition of cell proliferation incubated for 72 hrs by MTT assay

A549 = assay: cells; details: Homo sapiens, A549, 72 h
Description: Antiproliferative activity against human A549 cells assessed as inhibition of cell proliferation incubated for 72 hrs by MTT assay

Focal adhesion kinase 1 [1] = biological target: T1, Focal adhesion kinase 1 (Homo sapiens, UniProt Q05397); assay: Inhibition of FAK (unknown origin) incubated for 50 mins in presence of substrate/ATP by HTRF assay
Focal adhesion kinase 1 [2] = biological target: T1, Focal adhesion kinase 1; assay: Inhibition of GST-fused FAK (411 to 686 residues)(unknown origin) expressed in baculovirus expression system using poly(Glu:Tyr) as substrate incubated for 5 mins in presence of ATP by K-LISA screening assay

T1 sequence (Q05397 whole entry, the tested form may be a part): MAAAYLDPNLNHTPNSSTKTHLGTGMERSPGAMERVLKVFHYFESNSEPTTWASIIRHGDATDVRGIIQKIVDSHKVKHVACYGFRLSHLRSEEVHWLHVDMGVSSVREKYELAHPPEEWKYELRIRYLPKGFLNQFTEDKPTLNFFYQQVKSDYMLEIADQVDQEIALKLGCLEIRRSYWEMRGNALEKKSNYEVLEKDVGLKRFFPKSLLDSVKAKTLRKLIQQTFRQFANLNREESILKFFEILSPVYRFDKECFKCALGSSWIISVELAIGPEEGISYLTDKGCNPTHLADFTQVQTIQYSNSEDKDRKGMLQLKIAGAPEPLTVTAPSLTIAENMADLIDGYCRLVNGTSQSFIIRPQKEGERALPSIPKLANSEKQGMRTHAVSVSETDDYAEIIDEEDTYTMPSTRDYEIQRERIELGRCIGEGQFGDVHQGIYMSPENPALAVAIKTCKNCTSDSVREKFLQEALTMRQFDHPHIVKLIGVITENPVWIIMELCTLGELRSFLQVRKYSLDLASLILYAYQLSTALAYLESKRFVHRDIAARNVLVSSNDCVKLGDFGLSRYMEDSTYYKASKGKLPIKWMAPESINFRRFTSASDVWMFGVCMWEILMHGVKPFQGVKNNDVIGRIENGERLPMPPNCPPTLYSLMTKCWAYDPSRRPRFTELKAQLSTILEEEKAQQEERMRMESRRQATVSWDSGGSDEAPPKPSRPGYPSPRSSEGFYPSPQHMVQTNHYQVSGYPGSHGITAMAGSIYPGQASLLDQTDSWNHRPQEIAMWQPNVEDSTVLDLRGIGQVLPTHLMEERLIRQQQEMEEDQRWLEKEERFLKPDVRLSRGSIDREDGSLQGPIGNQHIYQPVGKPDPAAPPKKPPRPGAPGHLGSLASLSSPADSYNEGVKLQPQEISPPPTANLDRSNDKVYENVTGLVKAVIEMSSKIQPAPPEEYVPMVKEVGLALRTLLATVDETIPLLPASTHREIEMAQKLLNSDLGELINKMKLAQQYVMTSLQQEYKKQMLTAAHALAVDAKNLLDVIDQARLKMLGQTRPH

Compound | IC50 (MDA-MB-231) | IC50 (A549) | IC50 (Focal adhesion kinase 1 [1]) | IC50 (Focal adhesion kinase 1 [2])
CP(C)(=O)c1ccccc1Nc1nc(Nc2ccc(C(=O)NC3CCC(O)CC3)c(F)c2)ncc1Cl (centres undefined) | 2480 nM | 390 nM | 15.2 nM | –
Cc1cc(C(=O)NC2CCNCC2)ccc1Nc1ncc(Cl)c(Nc2ccccc2P(C)(C)=O)n1 | – | – | 28.8 nM | –
CP(C)(=O)c1ccccc1Nc1nc(Nc2ccc(C(=O)N[C@H]3CCNC3)cc2)ncc1Cl | 2350 nM | 2210 nM | 14.3 nM | –
CNC(=O)c1ccccc1Nc1nc(Nc2ccc(N3CCOCC3)cc2OC)ncc1Cl | 1020 nM | 4240 nM | – | –
COc1cc(C(=O)NC2CCNCC2)ccc1Nc1ncc(Cl)c(Nc2ccccc2P(C)(C)=O)n1 | 1340 nM | 1410 nM | 6.7 nM | –
Cc1cc(C(=O)NC2CCC(O)CC2)ccc1Nc1ncc(Cl)c(Nc2ccccc2P(C)(C)=O)n1 (centres undefined) | – | – | 31.7 nM | –
CP(C)(=O)c1ccccc1Nc1nc(Nc2ccc(C(=O)N3CCC(N4CCOCC4)CC3)cc2)ncc1Cl | – | – | 149 nM | –
CP(C)(=O)c1ccccc1Nc1nc(Nc2ccc(C(=O)N[C@@H]3CCNC3)cc2)ncc1Cl | 2120 nM | 2230 nM | 16.7 nM | –
COc1cc(C(=O)NC2CCC(O)CC2)ccc1Nc1ncc(Cl)c(Nc2ccccc2P(C)(C)=O)n1 (centres undefined) | 2490 nM | 1400 nM | 15.7 nM | –
Cc1cc(Nc2ncc(Cl)c(Nc3ccccc3P(C)(C)=O)n2)ccc1C(=O)NC1CCC(O)CC1 (centres undefined) | 7530 nM | 520 nM | 10.3 nM | –
CNC1CCN(C(=O)c2ccc(Nc3ncc(Cl)c(Nc4ccccc4P(C)(C)=O)n3)cc2)CC1 | – | – | 413 nM | –
Cc1cc(Nc2ncc(Cl)c(Nc3ccccc3P(C)(C)=O)n2)ccc1C(=O)NC1CCNCC1 | – | – | 31.9 nM | –
CP(C)(=O)c1ccccc1Nc1nc(Nc2ccc(C(=O)NC3CCNCC3)cc2F)ncc1Cl | – | – | 27.5 nM | –
CNC(=O)c1ccccc1Nc1nc(Nc2ccc(N3CCOCC3)cc2OC)ncc1C(F)(F)F | – | – | – | 1.5 nM
CP(C)(=O)c1ccccc1Nc1nc(Nc2ccc(C(=O)N3CCNCC3)cc2)ncc1Cl | – | – | 328 nM | –
CN(C(=O)c1ccc(Nc2ncc(Cl)c(Nc3ccccc3P(C)(C)=O)n2)cc1)C1CCNCC1 | – | – | 119 nM | –
CP(C)(=O)c1ccccc1Nc1nc(Nc2ccc(C(=O)NC3CCNCC3)cc2)ncc1Cl | 1620 nM | 2300 nM | 8.7 nM | –
CP(C)(=O)c1ccccc1Nc1nc(Nc2ccc(C(=O)N3CCOCC3)cc2)ncc1Cl | – | – | 356 nM | –
CP(C)(=O)c1ccccc1Nc1nc(Nc2ccc(C(=O)NC3CCC(O)CC3)cc2F)ncc1Cl (centres undefined) | – | – | 17.5 nM | –
CN(C(=O)c1ccc(Nc2ncc(Cl)c(Nc3ccccc3P(C)(C)=O)n2)cc1)C1CCCNC1 (centres undefined) | – | – | 163 nM | –
CP(C)(=O)c1ccccc1Nc1nc(Nc2ccc(C(=O)NCC3CCNCC3)cc2)ncc1Cl | – | – | 19.7 nM | –
CP(C)(=O)c1ccccc1Nc1nc(Nc2ccc(C(=O)NC3CCC(O)CC3)cc2)ncc1Cl (centres undefined) | 860 nM | 110 nM | 9.6 nM | –
CP(C)(=O)c1ccccc1Nc1nc(Nc2ccc(C(=O)NC3CCNCC3)c(F)c2)ncc1Cl | 8690 nM | 2650 nM | 15.8 nM | –
CP(C)(=O)c1ccccc1Nc1nc(Nc2ccc(C(=O)N3CCC[C@H](N)C3)cc2)ncc1Cl | – | – | 361 nM | –
CP(C)(=O)c1ccccc1Nc1nc(Nc2ccc(C(=O)N3CCC[C@@H](N)C3)cc2)ncc1Cl | – | – | 240 nM | –
